Reference: patent publication US20210204580A1, “ORGANIC COMPOUNDS” (Givaudan SA, priority 2018, published 2021)

Experiments:
[1] = off-note masking in consumables containing non-animal derived protein (general statements)
[2] = Potato protein solution taste description; details: 3 wt % potato protein solution + 14 ppt ethyl cyclohexanoate; Sample A without it: earthy, musty, fishy, bitter
Method: An aqueous potato protein solution comprising 3 weight % potato protein (Solanic™ 200 by Avebe) was prepared (Sample A).

CCOC(=O)C1CCCCC1 [ethyl cyclohexanoate]
effect on off-note attributes ([1]; higher concentrations, 50 ppt or more): provides a significant effect on several off-note attributes, but in addition confers some fruity notes
off-note masking result ([1]; up to 20 ppt (e.g. 0.5 ppt to about 15 ppt) added to a consumable comprising about 3 wt % non-animal derived protein): good results
masking of off-notes ([1]; use around its odor detection threshold, about 0.5 ppt (ng/L) to about 20 ppt (ng/L)): provides the masking of certain off-notes
taste description [2]: earthy, potato-like, but no fishy, bitter taste attributes have been noticed
